Assay [1] concerns the target T1, FGFR1 IIIc (Homo sapiens, UniProt P11362).
T1 construct: host or cells: Cos-1
As to the kind of experiment: Cell based inhibition of transiently expressed FGFR1 IIIc phosphorylation (Cos-1 cells). As to conditions: Cos-1 cells, phospho-FGFR1; upper bound of bin; read-out: IC50.

For assay [2], the target named is T2, human IGF1R (Homo sapiens, UniProt P08069).
T2 construct: expressed in transfected cells; host or cells: R+ cells (R- mouse fibroblasts transfected with human IGF1R)
T2 sequence (P08069 31-1367): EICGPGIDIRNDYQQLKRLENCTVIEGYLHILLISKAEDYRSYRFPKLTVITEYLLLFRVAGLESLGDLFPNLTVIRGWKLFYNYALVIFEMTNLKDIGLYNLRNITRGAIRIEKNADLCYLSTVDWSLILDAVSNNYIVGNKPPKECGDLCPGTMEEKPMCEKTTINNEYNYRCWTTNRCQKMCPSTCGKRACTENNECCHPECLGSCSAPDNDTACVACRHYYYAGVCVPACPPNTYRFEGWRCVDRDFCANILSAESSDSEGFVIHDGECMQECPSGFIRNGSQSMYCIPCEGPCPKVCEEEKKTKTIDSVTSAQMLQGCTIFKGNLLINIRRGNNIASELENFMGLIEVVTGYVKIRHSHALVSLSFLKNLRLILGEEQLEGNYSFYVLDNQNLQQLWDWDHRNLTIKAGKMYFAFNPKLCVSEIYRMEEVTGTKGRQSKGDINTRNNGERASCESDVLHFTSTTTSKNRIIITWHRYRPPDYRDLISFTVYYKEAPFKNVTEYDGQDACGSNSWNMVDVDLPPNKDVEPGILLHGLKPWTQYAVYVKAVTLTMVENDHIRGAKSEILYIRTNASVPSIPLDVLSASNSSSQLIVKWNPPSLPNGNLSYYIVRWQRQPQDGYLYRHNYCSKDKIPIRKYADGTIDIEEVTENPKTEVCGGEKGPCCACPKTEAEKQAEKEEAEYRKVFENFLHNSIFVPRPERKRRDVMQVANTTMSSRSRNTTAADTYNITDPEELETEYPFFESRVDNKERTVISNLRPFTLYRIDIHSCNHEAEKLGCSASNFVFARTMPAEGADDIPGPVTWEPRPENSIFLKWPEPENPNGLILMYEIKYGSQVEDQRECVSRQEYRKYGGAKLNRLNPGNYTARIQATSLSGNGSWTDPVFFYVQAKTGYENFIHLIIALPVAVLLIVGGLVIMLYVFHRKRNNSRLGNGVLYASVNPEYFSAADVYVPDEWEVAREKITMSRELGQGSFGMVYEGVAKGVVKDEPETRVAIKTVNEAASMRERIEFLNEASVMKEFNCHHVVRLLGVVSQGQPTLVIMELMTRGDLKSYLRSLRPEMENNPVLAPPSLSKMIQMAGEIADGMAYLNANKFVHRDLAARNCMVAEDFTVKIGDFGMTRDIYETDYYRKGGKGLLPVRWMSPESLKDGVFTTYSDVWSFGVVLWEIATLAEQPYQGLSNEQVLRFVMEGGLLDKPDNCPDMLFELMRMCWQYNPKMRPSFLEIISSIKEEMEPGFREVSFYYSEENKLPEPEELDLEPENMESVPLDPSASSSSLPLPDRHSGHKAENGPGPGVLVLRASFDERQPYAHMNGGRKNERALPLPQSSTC
The experiment in a line: Inhibition of insulin-like growth factor-1 receptor phosphorylation in R+ cells. The format is cell-based. As to conditions: 30 nM IGF1, read-out: IGF cell class.

Assay [3] deals with T3, FGFR kinase domain (Homo sapiens, UniProt P11362, C488A/C584S).
T3 construct: FGFR kinase domain (amino acids 458-765, C488A, C584S) N-terminally fused to a His6-tag; made in house
T3 sequence (P11362 458-765 C488A/C584S): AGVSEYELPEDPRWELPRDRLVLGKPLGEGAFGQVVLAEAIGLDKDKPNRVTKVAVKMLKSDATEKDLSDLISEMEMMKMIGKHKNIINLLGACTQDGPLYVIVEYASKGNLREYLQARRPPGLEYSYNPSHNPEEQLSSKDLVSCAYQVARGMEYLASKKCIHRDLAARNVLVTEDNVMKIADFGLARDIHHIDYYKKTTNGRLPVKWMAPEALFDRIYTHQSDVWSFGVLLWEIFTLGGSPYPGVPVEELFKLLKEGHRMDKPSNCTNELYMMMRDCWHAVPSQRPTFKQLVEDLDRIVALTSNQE
As to the kind of experiment: Kinase assay (ELISA) for inhibition of FGFR activity. The assay is classed as biochemical. As for the experimental part: To determine inhibition of FGFR activity, kinase assays were conducted using ELISA (Enzyme-Linked Immunosorbent Assay) technology.
Kinase activity assays were performed in 384-well polypropylene plates (Matrix, 4311) with a total volume of 40 μl in each well. Each well was coated with 2 μg of polyEAY substrate (Sigma, P3899) at 4° C. overnight. The plates were then washed once with 100 μl PBS and once with 100 μl 50 mM HEPES (pH 7.4) prior to the addition of the kinase assay reagents. […] Various concentrations of test compounds were each added in 5% (v/v) DMSO to yield a final assay DMSO concentration of 1.25% (v/v). The kinase reactions were incubated at room temperature for 45 minutes and stopped by washing the plate three times with 100 μl PBS plus 0.05% Tween. […] Following this, the plates were then washed repeatedly with 100 μl PBS plus 0.05% Tween to remove all traces of the antibody solution. 40 μl of 50 μg/ml 3,3′,5,5′-Tetramethylbenzidine (Sigma, T2885), 0.05M phosphate-citrate buffer, containing 0.03% sodium perborate was added to each well and the plates incubated at room temperature for twelve minutes. The colour reaction was stopped by the addition of 20 μl 2M H2SO4 and the plates read at 450 nm on a Spectrafluor Plus (Tecan).
On the technique in general: An ELISA detects its analyte on a solid surface through an enzyme-linked reagent.

Assay [4] concerns the target T1, FGFR1 IIIc. As to the kind of experiment: Cell based inhibition of transiently expressed FGFR1 IIIc phosphorylation via use of ECHO technology (Cos-1 cells). Conditions: Cos-1 cells, phospho-FGFR1, ECHO dosing; upper bound of bin; read-out: IC50.
Assay [5] concerns Erk phosphorylation. As to the kind of experiment: Growth factor (bFGF) stimulated Erk phosphorylation in NIH 3T3 cells. As to conditions: Mus musculus, NIH3T3, NIH 3T3 cells, 3 ng/ml bFGF.
Source text: These and other assays were used to evaluate the ability of a test compound to inhibit growth factor stimulated cellular signalling in mammalian cell lines. This was achieved by measuring the amount of receptor tyrosine kinase regulated Erk phosphorylation within a cell following compound treatment.
NIH 3T3 (ECACC, 93061524) cells were routinely passaged in DMEM (Gibco BRL, 41966) plus 10% foetal calf serum (FCS), 1% L-glutamine (Gibco BRL, 25030) to a confluence not greater than 80%. To undertake the assay, NIH 3T3's were seeded at 1×10^4 cells/well in DMEM plus 10% foetal calf serum, 1% L-glutamine in 96 well plates (Costar, 3904) and incubated at 37° C. (+5% CO2) in a humidified incubator. Once the cells had fully adhered (typically following 4-5 hours incubation) the media was removed from each well and the cells gently washed with 100μl warm serum free media. 90μl of serum free DMEM plus 1% L-glutamine was then added to each well and the plates were returned to a humidified 37° C. (+5% CO2) incubator. The following day, the plates were dosed with 10[l compound (diluted from 10 mM stock in DMSO using serum free DMEM) and the plates were returned to a humidified 37° C. (+5% CO2) incubator for one hour. NIH 3T3 cells were then stimulated with a final concentration of 3 ng/ml bFGF (Sigma, F029 1) for 20 minutes at 37° C. Following stimulation the cells were fixed by adding formaldehyde (4% v/v final concentration) and incubating at room temperature for 20 minutes. The fixative solution was then removed and the wells were washed twice with 100μl phosphate buffered saline (PBS/A) before permeabilising the cells by the addition of 50 μl/well 0.1% triton/PBS/A for 10 minutes at room temperature. The permeabilisation solution was then removed and the cells washed twice more with 100 μl/well PBS/A before the addition of 50 μl/well anti-phospho p44/42 (Cell Signalling Technology, 9106), diluted 1/500 with PBS/A plus 10% FCS. The anti-phospho p44/42 antibody recognises Erk phosphorylated at threonine 202 and tyrosine 204. […] Finally, the plates were washed three times with 100 μl/well PBS/A, leaving the final wash in the wells before sealing the plates. The plates were read at 350 nm and 488 nm using an Arrayscan (Cellomics).
Assay [6] addresses FGFR1 kinase (Homo sapiens, UniProt P11362). As to the kind of experiment: Kinase assay (using Caliper technology). The assay is classed as biochemical. Conditions: FGFR1 kinase, Caliper; upper bound of bin; read-out: IC50. In outline: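 Human FGFR1 kinase activity measured with a 13-mer fluorescently tagged FGFR1-specific peptide substrate; compounds serially diluted in 5% (v/v) DMSO. Reactions ran 1.5 h at room temperature, stopped with EDTA-containing HEPES pH 7.5 buffer. Phosphorylated and unphosphorylated peptide separated by microfluidic mobility shift.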

Where [7] appears, read: FGFR inhibition tests, ELISA kinase assay, read-out: Activity class.

Molecules are shown by their SMILES. Where two headings read alike, the source gives them in different places. Some results are limits rather than exact numbers.

Sequence of FGFR1 kinase (P11362 22-822): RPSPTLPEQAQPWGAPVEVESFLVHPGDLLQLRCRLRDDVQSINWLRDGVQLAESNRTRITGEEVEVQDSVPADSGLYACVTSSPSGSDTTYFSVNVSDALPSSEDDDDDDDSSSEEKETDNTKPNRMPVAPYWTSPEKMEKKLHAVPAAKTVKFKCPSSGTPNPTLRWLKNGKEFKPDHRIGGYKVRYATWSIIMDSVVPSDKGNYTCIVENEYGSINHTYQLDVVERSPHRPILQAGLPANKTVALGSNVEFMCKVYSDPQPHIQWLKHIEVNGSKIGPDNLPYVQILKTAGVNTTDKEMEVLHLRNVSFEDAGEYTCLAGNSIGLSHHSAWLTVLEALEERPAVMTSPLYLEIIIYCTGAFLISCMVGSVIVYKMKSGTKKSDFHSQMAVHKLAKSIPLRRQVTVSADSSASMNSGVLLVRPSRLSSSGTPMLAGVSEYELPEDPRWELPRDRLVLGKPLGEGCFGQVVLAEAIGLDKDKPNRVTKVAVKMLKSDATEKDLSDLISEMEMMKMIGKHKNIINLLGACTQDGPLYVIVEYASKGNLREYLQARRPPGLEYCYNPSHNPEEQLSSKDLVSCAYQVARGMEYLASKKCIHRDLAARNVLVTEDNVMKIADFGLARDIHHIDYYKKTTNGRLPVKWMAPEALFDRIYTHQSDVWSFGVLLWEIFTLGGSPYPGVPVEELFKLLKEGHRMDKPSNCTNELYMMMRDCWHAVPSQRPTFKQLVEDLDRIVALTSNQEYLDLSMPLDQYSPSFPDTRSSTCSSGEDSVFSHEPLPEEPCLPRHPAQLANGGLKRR
T1 sequence (P11362 22-822): as above

Turning to `Cc1cc(Nc2ccnc(NCc3cc(C4CC4)no3)n2)n[nH]1` [Example 3, N-[(3-cyclopropylisoxazol-5-yl)methyl]-N ′-(5-methyl-2H-pyrazol-3-yl)pyrimidine-2,4-diamine], the IC50 in assay [1] is under 1000 nM; in assay [2], 1000 to 10000 nM; in assay [3] (setting [7]), under 100 nM; in assay [4], under 1000 nM; in assay [5] it was under 200 nM.
As for `NC(=O)c1cc(CNc2nccc(Nc3cc(C4CC4)n[nH]3)n2)on1` [Example 11, 5-[[[4-[(5-cyclopropyl-2H-pyrazol-3-yl)amino]pyrimidin-2-yl]amino]methyl]-1,2-oxazole-3-carboxamide], the IC50 in assay [2] is 1000 to 10000 nM; in assay [3] (setting [7]) it was under 100 nM; in assay [4] it was under 1000 nM.
In the case of `COc1ccc(CCc2cc(Nc3ccnc(NCc4cc(C)no4)n3)n[nH]2)cc1` [Example 24, N′-[5-[2-(4-methoxyphenyl)ethyl]-2H-pyrazol-3-yl]-N-[(3-methyl-1,2-oxazol-5-yl)methyl]pyrimidine-2,4-diamine], the IC50 in assay [6] is under 1000 nM; in assay [1], under 1000 nM; in assay [2], over 10000 nM; in assay [3] (setting [7]) it was 100 to 1000 nM.
`COc1cccc(CCc2cc(Nc3ccnc(NCc4cc(C)no4)n3)n[nH]2)c1` [Example 27, N′-[5-[2-(3-methoxyphenyl)ethyl]-2H-pyrazol-3-yl]-N-[(3-methyl-1,2-oxazol-5-yl)methyl]pyrimidine-2,4-diamine]: the IC50 in assay [6] is under 200 nM; in assay [1], under 200 nM; in assay [2] it was over 10000 nM; in assay [3] (setting [7]), under 100 nM.
For the compound `COc1cccc(CCc2cc(Nc3ccnc(NCc4cc(C5CC5)no4)n3)n[nH]2)c1` [Example 28, N-[(3-cyclopropyl-1,2-oxazol-5-yl)methyl]-N′-[5-[2-(3-methoxyphenyl)ethyl]-2H-pyrazol-3-yl]pyrimidine-2,4-diamine], the IC50 in assay [6] was under 200 nM; in assay [1], under 200 nM; in assay [3] (setting [7]), 100 to 1000 nM; in assay [4] it was under 200 nM.
`COc1cccc(CCc2cc(Nc3ccnc(NCc4cc(C(N)=O)no4)n3)[nH]n2)c1` [Example 29, 5-[[[4-[[5-[2-(3-methoxyphenyl)ethyl]-2H-pyrazol-3-yl]amino]pyrimidin-2-yl]amino]methyl]-1,2-oxazole-3-carboxamide]: the IC50 is under 200 nM in assay [6], under 10000 nM in assay [1], over 10000 nM in assay [2] and under 100 nM in assay [3] (setting [7]).
For `COc1cccc(CCc2cc(Nc3ccnc(NCc4cc(-c5ncccn5)no4)n3)[nH]n2)c1` [Example 33, N′-[5-[2-(3-methoxyphenyl)ethyl]-2H-pyrazol-3-yl]-N-[(3-pyrimidin-2-yl1,2-oxazol-5-yl)methyl]pyrimidine-2,4-diamine], the IC50 in assay [6] is under 200 nM; in assay [2], over 10000 nM; in assay [3] (stated after the ELISA results table, read-out: IC50), 92 nM; in assay [5], 518 nM; in assay [5] (upper bound of bin), under 1000 nM.
Consider `Cc1cc(CNc2nc(C)cc(Nc3cc(OC(C)C)[nH]n3)n2)on1` [Example 68, 6-methyl-N-[(3-methyl-1,2-oxazol-5-yl)methyl]-N′-(5-propan-2-yloxy-1H-pyrazol-3-yl)pyrimidine-2,4-diamine], for which the IC50 in assay [6] is under 200 nM; in assay [2] it was over 10000 nM; in assay [3] (setting [7]) it was under 100 nM; in assay [4] it was under 200 nM.
Consider `COc1cc(Nc2cc(OC(C)C)n[nH]2)nc(NCc2cc(C)no2)n1` [Example 70, 6-methoxy-N-[(3-methyl-1,2-oxazol-5-yl)methyl]-N′-(5-propan-2-yloxy-2H-pyrazol-3-yl)pyrimidine-2,4-diamine], for which the IC50 is under 200 nM in assay [6], over 10000 nM in assay [2], under 100 nM in assay [3] (setting [7]) and under 200 nM in assay [4].
For `Cc1cc(CNc2nccc(Nc3cc(OCc4ccccc4)[nH]n3)n2)on1` [Example 72, N-[(3-methyl-1,2-oxazol-5-yl)methyl]-N′-(5-phenylmethoxy-1H-pyrazol-3-yl)pyrimidine-2,4-diamine], the IC50 is 100 to 1000 nM in assay [3] (setting [7]) and under 1000 nM in assay [5] (upper bound of bin).
